# Data published in paper PMC12203311, “Design, synthesis, in silico and in vitro evaluation of pyrrole–indole hybrids as dual tubulin and aromatase inhibitors with potent anticancer activities” (RSC Advances, 2025).
# Legend:
# UACC-62 = assay: NCI60 five-dose screen; type: cell-based; details: Homo sapiens, UACC-62, melanoma; for CC50: read-out: LC50 (the source's name)
# MDA-MB-231/ATCC = assay: NCI60 five-dose screen; type: cell-based; details: Homo sapiens, breast cancer; for CC50: read-out: LC50 (the source's name)
# SW-620 = assay: NCI60 five-dose screen; type: cell-based; details: Homo sapiens, SW-620, colon cancer; for CC50: read-out: LC50 (the source's name)
# MCF7 = assay: NCI60 five-dose screen; type: cell-based; details: Homo sapiens, MCF7, breast cancer; for CC50: read-out: LC50 (the source's name)
# M14 = assay: NCI60 five-dose screen; type: cell-based; details: Homo sapiens, M14, melanoma; for CC50: read-out: LC50 (the source's name)
# SNB-19 = assay: NCI60 five-dose screen; type: cell-based; details: Homo sapiens, SNB-19, CNS cancer; for CC50: read-out: LC50 (the source's name)
# SK-MEL-2 = assay: NCI60 five-dose screen; type: cell-based; details: Homo sapiens, SK-MEL-2, melanoma; for CC50: read-out: LC50 (the source's name)
# Human CYP19 (aromatase) = target: T1, Human CYP19 (aromatase) (Homo sapiens, UniProt P11511); assay: Aromatase inhibition assay (DBF fluorometric substrate); type: biochemical; details: active defined as IC50 < 12.5 µM
# T1 construct: purchased GENTEST, Woburn, MA 456260; host or cells: baculovirus/insect cells
# T1 sequence (P11511 1-503): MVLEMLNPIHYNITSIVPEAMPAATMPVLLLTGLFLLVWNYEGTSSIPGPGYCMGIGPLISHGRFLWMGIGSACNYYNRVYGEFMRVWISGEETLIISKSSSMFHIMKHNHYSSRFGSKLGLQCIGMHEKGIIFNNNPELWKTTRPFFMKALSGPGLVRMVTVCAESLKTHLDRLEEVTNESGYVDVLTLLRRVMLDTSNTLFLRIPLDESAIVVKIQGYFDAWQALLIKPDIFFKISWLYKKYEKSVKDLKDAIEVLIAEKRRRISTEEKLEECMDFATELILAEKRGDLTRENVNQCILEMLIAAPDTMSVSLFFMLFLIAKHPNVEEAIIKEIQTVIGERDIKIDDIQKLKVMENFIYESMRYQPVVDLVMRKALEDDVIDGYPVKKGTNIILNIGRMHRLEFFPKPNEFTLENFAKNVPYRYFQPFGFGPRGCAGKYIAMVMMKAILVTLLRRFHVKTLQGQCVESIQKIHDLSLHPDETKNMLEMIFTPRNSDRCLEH
# Method in brief: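 Supersomes expressing human CYP19 plus oxidoreductase (baculovirus/insect cell) with fluorometric substrate DBF; cofactor mixture pre-incubated 10 min at 37 °C, reaction run 30 min at 37 °C, stopped with NaOH. Fluorescence read at ex 490/em 530 nm.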
# SF-539 = assay: NCI60 five-dose screen; type: cell-based; details: Homo sapiens, SF-539, CNS cancer; for CC50: read-out: LC50 (the source's name)
# HT29 = assay: NCI60 five-dose screen; type: cell-based; details: Homo sapiens, HT-29, HT29, colon cancer; for CC50: read-out: LC50 (the source's name)
# OVCAR-3 = assay: NCI60 five-dose screen; type: cell-based; details: Homo sapiens, OVCAR-3, ovarian cancer; for CC50: read-out: LC50 (the source's name)
# ACHN = assay: NCI60 five-dose screen; type: cell-based; details: Homo sapiens, renal cancer; for CC50: read-out: LC50 (the source's name)
# EKVX = assay: NCI60 five-dose screen; type: cell-based; details: Homo sapiens, NSC lung cancer; for CC50: read-out: LC50 (the source's name)
# TK-10 = assay: NCI60 five-dose screen; type: cell-based; details: Homo sapiens, TK-10, renal cancer; for CC50: read-out: LC50 (the source's name)
# NCI-H522 = assay: NCI60 five-dose screen; type: cell-based; details: Homo sapiens, NCI-H522, NSC lung cancer; for CC50: read-out: LC50 (the source's name)
# [1] = test system: T47D breast cancer cell line; assay: Cytotoxicity MTT assay, T47D; type: cell-based, human; details: for IC50: Homo sapiens, T47D, MTT, 48 hours
# Method in brief: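 Both lines were handled identically: 10 000 cells per well, overnight growth, 48 h with compound at the chosen concentrations, then 0.5 mg mL^−1 MTT for 3 h. Dissolved formazan was quantified at 570 nm against vehicle-treated wells.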
# HCC-2998 = assay: NCI60 five-dose screen; type: cell-based; details: Homo sapiens, HCC-2998, colon cancer; for CC50: read-out: LC50 (the source's name)
# DU-145 = assay: NCI60 five-dose screen; type: cell-based; details: Homo sapiens, DU-145, prostate cancer; for CC50: read-out: LC50 (the source's name)
# OVCAR-5 = assay: NCI60 five-dose screen; type: cell-based; details: Homo sapiens, OVCAR-5, ovarian cancer; for CC50: read-out: LC50 (the source's name)
# NCI/ADR-RES = assay: NCI60 five-dose screen; type: cell-based, human; details: Homo sapiens, ovarian cancer; for CC50: read-out: LC50 (the source's name)
# K-562 = assay: NCI60 five-dose screen; type: cell-based; details: Homo sapiens, K562, K-562, leukemia; for CC50: read-out: LC50 (the source's name)
# T-47D = assay: NCI60 five-dose screen; type: cell-based; details: Homo sapiens, T47D, breast cancer; for CC50: read-out: LC50 (the source's name)
compound,measurement,setting,value
"O=C(N/N=C/c1[nH]ccc1Cl)c1[nH]c2ccc(Br)cc2c1-c1ccccc1 [Derivative 3g, (E)-5-Bromo-N′-((3-chloro-1H-pyrrol-2-yl)methylene)-3-phenyl-1H-indole-2-carbohydrazide]",GI50,UACC-62,0.411 µM
same,CC50,UACC-62,37 µM
same,GI50,MDA-MB-231/ATCC,2.07 µM
same,CC50,MDA-MB-231/ATCC,28.2 µM
same,GI50,SW-620,0.499 µM
same,CC50,SW-620,50.2 µM
same,GI50,MCF7,0.376 µM
same,CC50,MCF7,42.2 µM
same,GI50,M14,0.689 µM
same,CC50,M14,45.4 µM
same,GI50,SNB-19,1.06 µM
same,CC50,SNB-19,35.4 µM
same,GI50,SK-MEL-2,1.07 µM
same,CC50,SK-MEL-2,38.7 µM
same,IC50,Human CYP19 (aromatase),2.6 ± 0.5 µM
same,GI50,SF-539,0.378 µM
same,CC50,SF-539,18.5 µM
same,GI50,HT29,0.401 µM
same,CC50,HT29,58.5 µM
same,GI50,OVCAR-3,0.409 µM
same,CC50,OVCAR-3,34.9 µM
same,GI50,ACHN,0.627 µM
same,CC50,ACHN,34.5 µM
same,GI50,EKVX,2.66 µM
same,CC50,EKVX,38.1 µM
same,GI50,TK-10,7.16 µM
same,CC50,TK-10,49.5 µM
same,GI50,NCI-H522,0.233 µM
same,CC50,NCI-H522,20.4 µM
same,IC50,[1],8.2 ± 1.8 µM
same,GI50,HCC-2998,1.23 µM
same,CC50,HCC-2998,28.6 µM
same,GI50,DU-145,1.58 µM
same,CC50,DU-145,33.1 µM
same,GI50,OVCAR-5,1.1 µM
same,CC50,OVCAR-5,35.7 µM
same,GI50,NCI/ADR-RES,0.219 µM
same,CC50,NCI/ADR-RES,10.5 µM
same,GI50,K-562,0.413 µM
same,CC50,K-562,> 100 µM
same,GI50,T-47D,2.5 µM
same,CC50,T-47D,81.9 µM
"O=C(N/N=C/c1ccc([N+](=O)[O-])[nH]1)c1[nH]c2ccc(Br)cc2c1-c1ccccc1 [Derivative 3p, (E)-5-Bromo-N′-((5-nitro-1H-pyrrol-2-yl)methylene)-3-phenyl-1H-indole-2-carbohydrazide]",GI50,UACC-62,0.451 µM
same,CC50,UACC-62,40.9 µM
same,GI50,MDA-MB-231/ATCC,2.14 µM
same,CC50,MDA-MB-231/ATCC,46.6 µM
same,GI50,SW-620,0.249 µM
same,CC50,SW-620,48.4 µM
same,GI50,MCF7,0.394 µM
same,CC50,MCF7,39 µM
same,GI50,M14,0.652 µM
same,CC50,M14,37 µM
same,GI50,SNB-19,3.34 µM
same,CC50,SNB-19,42.4 µM
same,GI50,SK-MEL-2,2.18 µM
same,CC50,SK-MEL-2,36.5 µM
same,IC50,Human CYP19 (aromatase),1.4 ± 0.3 µM
same,GI50,SF-539,0.389 µM
same,CC50,SF-539,28.1 µM
same,GI50,HT29,0.55 µM
same,CC50,HT29,43.9 µM
same,GI50,OVCAR-3,0.602 µM
same,CC50,OVCAR-3,34.8 µM
same,GI50,ACHN,1.26 µM
same,CC50,ACHN,38 µM
same,GI50,EKVX,5.37 µM
same,CC50,EKVX,45.7 µM
same,GI50,TK-10,12.2 µM
same,CC50,TK-10,53.8 µM
same,GI50,NCI-H522,0.588 µM
same,CC50,NCI-H522,19.8 µM
same,activity against T47D in two-dose screen,[1]; 10 µM and 50 µM,weak activity
same,GI50,HCC-2998,1.67 µM
same,CC50,HCC-2998,19.6 µM
same,GI50,DU-145,1.84 µM
same,CC50,DU-145,32.5 µM
same,GI50,OVCAR-5,2.87 µM
same,CC50,OVCAR-5,40.9 µM
same,GI50,NCI/ADR-RES,0.285 µM
same,CC50,NCI/ADR-RES,16.2 µM
same,GI50,K-562,0.365 µM
same,CC50,K-562,> 100 µM
same,GI50,T-47D,2.4 µM
same,CC50,T-47D,59.6 µM
"O=C(N/N=C/c1ccc(C(=O)N2CCOCC2)[nH]1)c1[nH]c2ccc(Br)cc2c1-c1ccccc1 [Derivative 3n, (E)-5-Bromo-N′-((5-(morpholine-4-carbonyl)-1H-pyrrol-2-yl)methylene)-3-phenyl-1H-indole-2-carbohydrazide]",GI50,UACC-62,0.864 µM
same,CC50,UACC-62,63.7 µM
same,GI50,MDA-MB-231/ATCC,4.81 µM
same,CC50,MDA-MB-231/ATCC,83.2 µM
same,GI50,SW-620,3.26 µM
same,CC50,SW-620,> 100 µM
same,GI50,MCF7,2.46 µM
same,CC50,MCF7,77.8 µM
same,GI50,M14,1.92 µM
same,CC50,M14,64.2 µM
same,GI50,SNB-19,5.66 µM
same,CC50,SNB-19,> 100 µM
same,GI50,SK-MEL-2,2.8 µM
same,CC50,SK-MEL-2,48.3 µM
same,IC50,Human CYP19 (aromatase),3.3 ± 0.6 µM
same,GI50,SF-539,2.23 µM
same,CC50,SF-539,34.9 µM
same,GI50,HT29,2.57 µM
same,CC50,HT29,38.3 µM
same,GI50,OVCAR-3,2.57 µM
same,CC50,OVCAR-3,47.4 µM
same,GI50,ACHN,4.56 µM
same,CC50,ACHN,> 100 µM
same,GI50,EKVX,7.51 µM
same,CC50,EKVX,> 100 µM
same,GI50,TK-10,10.4 µM
same,CC50,TK-10,> 100 µM
same,GI50,NCI-H522,1.6 µM
same,CC50,NCI-H522,58.8 µM
same,IC50,[1],5.4 ± 4.8 µM
same,GI50,HCC-2998,2.31 µM
same,CC50,HCC-2998,42.9 µM
same,GI50,DU-145,3.72 µM
same,CC50,DU-145,> 100 µM
same,GI50,OVCAR-5,5.78 µM
same,CC50,OVCAR-5,> 100 µM
same,GI50,NCI/ADR-RES,1.92 µM
same,CC50,NCI/ADR-RES,84.1 µM
same,GI50,K-562,1.27 µM
same,CC50,K-562,42.7 µM
same,GI50,T-47D,3.1 µM
same,CC50,T-47D,> 100 µM
